Laboratory results published in PubChem BioAssay (NCI).
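Step 1: Grow cells in 96-well plates. Step 2: Expose to compound for 48 hours at 5 concentrations. Step 3: Interpolate endpoints linearly; if unreached, use highest concentration. TGI is the concentration that stops growth completely.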

Tests used:
Assay in all cases: NCI anticancer screen, dose series, 48 h
A549 NSCLC = system: A549 NSCLC
LOX IMVI melanoma = system: LOX IMVI melanoma
DU-145 prostate = system: DU-145 prostate
OVCAR-5 ovarian = system: OVCAR-5 ovarian
NCI-H226 lung = system: NCI-H226 lung
TK-10 renal = system: TK-10 renal
MALME-3M melanoma = system: MALME-3M melanoma
OVCAR-8 ovarian = system: OVCAR-8 ovarian
SR leukemia = system: SR leukemia
SK-MEL-2 melanoma = system: SK-MEL-2 melanoma
U251 CNS = system: U251 CNS
HCT-116 colon = system: HCT-116 colon
SF-539 CNS = system: SF-539 CNS
SW-620 colon = system: SW-620 colon
K-562 leukemia = system: K-562 leukemia
SK-OV-3 ovarian = system: SK-OV-3 ovarian
NCI-H23 lung = system: NCI-H23 lung
HL-60(TB) leukemia = system: HL-60(TB) leukemia
MDA-N = system: MDA-N
RPMI-8226 leukemia = system: RPMI-8226 leukemia
PC-3 prostate = system: PC-3 prostate
NCI/ADR-RES ovarian = system: NCI/ADR-RES ovarian
EKVX NSCLC = system: EKVX NSCLC
UACC-62 melanoma = system: UACC-62 melanoma
MDA-MB-231 breast = system: MDA-MB-231 breast
HCC-2998 colon = system: HCC-2998 colon
SK-MEL-5 melanoma = system: SK-MEL-5 melanoma
UACC-257 melanoma = system: UACC-257 melanoma
RXF 393 renal = system: RXF 393 renal
SK-MEL-28 melanoma = system: SK-MEL-28 melanoma
MOLT-4 leukemia = system: MOLT-4 leukemia
786-0 renal = system: 786-0 renal
IGROV1 ovarian = system: IGROV1 ovarian
SN12C renal = system: SN12C renal
KM12 colon = system: KM12 colon
SNB-75 CNS = system: SNB-75 CNS
NCI-H460 lung = system: NCI-H460 lung
A498 renal = system: A498 renal
SF-268 CNS = system: SF-268 CNS
T-47D breast = system: T-47D breast
BT-549 breast = system: BT-549 breast
SNB-19 CNS = system: SNB-19 CNS
HT29 colon = system: HT29 colon
HOP-92 NSCLC = system: HOP-92 NSCLC
MDA-MB-435 = system: MDA-MB-435
COLO 205 colon = system: COLO 205 colon
MCF7 breast = system: MCF7 breast
HS 578T breast = system: HS 578T breast
OVCAR-3 ovarian = system: OVCAR-3 ovarian
M14 melanoma = system: M14 melanoma
HCT-15 colon = system: HCT-15 colon
OVCAR-4 ovarian = system: OVCAR-4 ovarian
CAKI-1 renal = system: CAKI-1 renal
UO-31 renal = system: UO-31 renal
CCRF-CEM leukemia = system: CCRF-CEM leukemia
HOP-62 NSCLC = system: HOP-62 NSCLC
ACHN renal = system: ACHN renal
SF-295 CNS = system: SF-295 CNS

Question: Which TGI (A549 NSCLC) does the source give for `C=C1CN(C(=O)c2cc3cc(OC)c(OC)c(OC)c3[nH]2)c2cc([N+](=O)[O-])ccc21` here?
Answer: > 100 µM

Question: What about the TGI (LOX IMVI melanoma) of the same compound?
Answer: > 100 µM

Question: What about the TGI (DU-145 prostate) of the same compound?
Answer: > 100 µM

Question: And the TGI (OVCAR-5 ovarian)?
Answer: > 100 µM

Question: What about the TGI (NCI-H226 lung) of the same compound?
Answer: > 100 µM

Question: And the TGI (TK-10 renal)?
Answer: > 100 µM

Question: And the TGI (MALME-3M melanoma)?
Answer: > 100 µM

Question: And the TGI (OVCAR-8 ovarian)?
Answer: > 100 µM

Question: What about the TGI (SR leukemia) of the same compound?
Answer: > 100 µM

Question: And the TGI (SK-MEL-2 melanoma)?
Answer: > 100 µM

Question: And the TGI (U251 CNS)?
Answer: > 100 µM

Question: And the TGI (HCT-116 colon)?
Answer: > 100 µM

Question: And the TGI (SF-539 CNS)?
Answer: > 100 µM

Question: What about the TGI (SW-620 colon) of the same compound?
Answer: > 100 µM

Question: And the TGI (K-562 leukemia)?
Answer: > 100 µM

Question: What about the TGI (SK-OV-3 ovarian) of the same compound?
Answer: > 100 µM

Question: What about the TGI (NCI-H23 lung) of the same compound?
Answer: > 100 µM

Question: What about the TGI (HL-60(TB) leukemia) of the same compound?
Answer: > 100 µM

Question: What about the TGI (MDA-N) of the same compound?
Answer: > 100 µM

Question: And the TGI (RPMI-8226 leukemia)?
Answer: > 100 µM

Question: And the TGI (PC-3 prostate)?
Answer: > 100 µM

Question: What about the TGI (NCI/ADR-RES ovarian) of the same compound?
Answer: > 100 µM

Question: What about the TGI (EKVX NSCLC) of the same compound?
Answer: > 100 µM

Question: And the TGI (UACC-62 melanoma)?
Answer: > 100 µM

Question: And the TGI (MDA-MB-231 breast)?
Answer: 88.5 µM

Question: And the TGI (HCC-2998 colon)?
Answer: > 100 µM

Question: And the TGI (SK-MEL-5 melanoma)?
Answer: > 100 µM

Question: What about the TGI (UACC-257 melanoma) of the same compound?
Answer: > 100 µM

Question: What about the TGI (RXF 393 renal) of the same compound?
Answer: > 100 µM

Question: What about the TGI (SK-MEL-28 melanoma) of the same compound?
Answer: > 100 µM

Question: And the TGI (MOLT-4 leukemia)?
Answer: > 100 µM

Question: What about the TGI (786-0 renal) of the same compound?
Answer: > 100 µM

Question: What about the TGI (IGROV1 ovarian) of the same compound?
Answer: > 100 µM

Question: What about the TGI (SN12C renal) of the same compound?
Answer: > 100 µM

Question: What about the TGI (KM12 colon) of the same compound?
Answer: > 100 µM

Question: What about the TGI (SNB-75 CNS) of the same compound?
Answer: > 100 µM

Question: And the TGI (NCI-H460 lung)?
Answer: > 100 µM

Question: And the TGI (A498 renal)?
Answer: > 100 µM

Question: And the TGI (SF-268 CNS)?
Answer: > 100 µM

Question: And the TGI (T-47D breast)?
Answer: > 100 µM

Question: What about the TGI (BT-549 breast) of the same compound?
Answer: > 100 µM

Question: What about the TGI (SNB-19 CNS) of the same compound?
Answer: > 100 µM

Question: And the TGI (HT29 colon)?
Answer: > 100 µM

Question: What about the TGI (HOP-92 NSCLC) of the same compound?
Answer: > 100 µM

Question: What about the TGI (MDA-MB-435) of the same compound?
Answer: > 100 µM

Question: And the TGI (COLO 205 colon)?
Answer: > 100 µM

Question: And the TGI (MCF7 breast)?
Answer: > 100 µM

Question: What about the TGI (HS 578T breast) of the same compound?
Answer: 41.9 µM

Question: What about the TGI (OVCAR-3 ovarian) of the same compound?
Answer: > 100 µM

Question: What about the TGI (M14 melanoma) of the same compound?
Answer: > 100 µM

Question: What about the TGI (HCT-15 colon) of the same compound?
Answer: > 100 µM

Question: What about the TGI (OVCAR-4 ovarian) of the same compound?
Answer: > 100 µM

Question: What about the TGI (CAKI-1 renal) of the same compound?
Answer: > 100 µM

Question: And the TGI (UO-31 renal)?
Answer: > 100 µM

Question: With `COc1ccc(/C=C/C=C2C(=O)NC(=S)NC2=O)cc1` as the compound, how does the TGI (A549 NSCLC) read?
Answer: 46.2 µM

Question: What about the TGI (LOX IMVI melanoma) of the same compound?
Answer: 3.97 µM

Question: And the TGI (DU-145 prostate)?
Answer: 17.7 µM

Question: And the TGI (OVCAR-5 ovarian)?
Answer: 47.1 µM

Question: And the TGI (NCI-H226 lung)?
Answer: 44.6 µM

Question: What about the TGI (TK-10 renal) of the same compound?
Answer: 7.33 µM

Question: And the TGI (MALME-3M melanoma)?
Answer: 14.1 µM

Question: What about the TGI (OVCAR-8 ovarian) of the same compound?
Answer: 13.1 µM

Question: What about the TGI (SR leukemia) of the same compound?
Answer: 4.63 µM

Question: And the TGI (SK-MEL-2 melanoma)?
Answer: 35.3 µM

Question: What about the TGI (U251 CNS) of the same compound?
Answer: 5.1 µM

Question: And the TGI (HCT-116 colon)?
Answer: 13.7 µM

Question: And the TGI (CCRF-CEM leukemia)?
Answer: 5.69 µM

Question: And the TGI (SF-539 CNS)?
Answer: 15.8 µM

Question: What about the TGI (HOP-62 NSCLC) of the same compound?
Answer: > 49.8 µM

Question: And the TGI (SW-620 colon)?
Answer: 3.37 µM

Question: And the TGI (K-562 leukemia)?
Answer: > 31.9 µM

Question: What about the TGI (SK-OV-3 ovarian) of the same compound?
Answer: 33.2 µM

Question: What about the TGI (NCI-H23 lung) of the same compound?
Answer: 21 µM

Question: And the TGI (MDA-N)?
Answer: 15.2 µM

Question: And the TGI (RPMI-8226 leukemia)?
Answer: 18.2 µM

Question: And the TGI (PC-3 prostate)?
Answer: 43.8 µM

Question: What about the TGI (NCI/ADR-RES ovarian) of the same compound?
Answer: 12.3 µM

Question: And the TGI (EKVX NSCLC)?
Answer: 25.7 µM

Question: What about the TGI (UACC-62 melanoma) of the same compound?
Answer: 9.1 µM

Question: What about the TGI (MDA-MB-231 breast) of the same compound?
Answer: 4.57 µM

Question: What about the TGI (HCC-2998 colon) of the same compound?
Answer: 21.3 µM

Question: What about the TGI (ACHN renal) of the same compound?
Answer: 16.7 µM

Question: And the TGI (SK-MEL-5 melanoma)?
Answer: 26.1 µM

Question: What about the TGI (UACC-257 melanoma) of the same compound?
Answer: 22 µM

Question: And the TGI (RXF 393 renal)?
Answer: 16.8 µM

Question: And the TGI (SK-MEL-28 melanoma)?
Answer: 3.45 µM

Question: And the TGI (MOLT-4 leukemia)?
Answer: 10 µM

Question: What about the TGI (786-0 renal) of the same compound?
Answer: 5.47 µM

Question: And the TGI (IGROV1 ovarian)?
Answer: 15.4 µM

Question: What about the TGI (SN12C renal) of the same compound?
Answer: 19.5 µM

Question: And the TGI (KM12 colon)?
Answer: 34.6 µM

Question: And the TGI (SF-295 CNS)?
Answer: 29.9 µM

Question: What about the TGI (SNB-75 CNS) of the same compound?
Answer: 47.2 µM

Question: And the TGI (NCI-H460 lung)?
Answer: 30.6 µM

Question: What about the TGI (A498 renal) of the same compound?
Answer: > 100 µM

Question: And the TGI (SF-268 CNS)?
Answer: 26.8 µM

Question: And the TGI (T-47D breast)?
Answer: > 100 µM

Question: What about the TGI (BT-549 breast) of the same compound?
Answer: 4.62 µM

Question: What about the TGI (SNB-19 CNS) of the same compound?
Answer: 20 µM

Question: What about the TGI (HT29 colon) of the same compound?
Answer: 19.6 µM

Question: What about the TGI (HOP-92 NSCLC) of the same compound?
Answer: 25.4 µM

Question: What about the TGI (MDA-MB-435) of the same compound?
Answer: 7.77 µM

Question: What about the TGI (COLO 205 colon) of the same compound?
Answer: 13.5 µM

Question: And the TGI (MCF7 breast)?
Answer: 22 µM

Question: What about the TGI (HS 578T breast) of the same compound?
Answer: > 56.6 µM

Question: And the TGI (OVCAR-3 ovarian)?
Answer: 29 µM

Question: And the TGI (M14 melanoma)?
Answer: 21.7 µM

Question: And the TGI (HCT-15 colon)?
Answer: 8.68 µM

Question: What about the TGI (OVCAR-4 ovarian) of the same compound?
Answer: > 60.7 µM

Question: And the TGI (CAKI-1 renal)?
Answer: 23.8 µM

Question: And the TGI (UO-31 renal)?
Answer: 19.9 µM
